Assays:
Experiment in all cases: Protein transfection efficiency by flow cytometry
Assay type in all cases: cell-based, human
Conditions in all cases: HEPES buffer 20 mM-40 mM
endometrial cancer cells = system: endometrial cancer cells
Experimental: (§1) Flow cytometry: After protein transfection was completed, the cells in the culture dish were washed with PBS, trypsinized and pelleted. The cells were mixed with Fixation/Permeabilization (eBioscience, Inc., San Diego, Calif., USA) working solution and incubated at 4° C. for 30 min to 24 h. Cells were washed twice with 1× Permeabilization Buffer (eBioscience, Inc., San Diego, Calif., USA). To assess the protein transfection efficiency, the cells were stained with anti-v5 or anti-flag antibodies and Alexa Fluor 488 anti-mouse antibodies on ice. Cells were suspended in 1×PBS and analyzed by flow cytometry (BD Biosciences, Qume Drive San Jose, Calif., USA). FIG. 1 schematically illustrates the protein transfection procedure. Briefly, the protein of interest and a protein transfection composition, such as HEPES buffer, were mixed and incubated for about 15 min to about 30 min to form a mixture (Panel A). Cells to be transfected were replaced in a minimal essential medium (Panel B). The mixture in Panel A was added to the cells in Panel B and incubated at 37° C. for about 4 to about 24 hours (Panel C). The protein transfection efficiency can be analyzed using immunofluorescent staining or flow cytometry (Panel D). Alexa Fluor 488 anti-mouse IgG or […]1 were incubated with Opti-MEM (the control group) or HEPES buffer (20 mM-40 mM) to transfect the following cancer cells according to the steps in Example 1: human cervical cancer cells, human breast cancer cells (MCF7, BRCA009 or BRCA011), human endometrial cancer cells, lung adenocarcinoma cells, human pancreatic cancer cells, hepatocellular carcinoma cells, scarcoma cells, renal cell carcinoma cells, lymphoma cells, nasopharyngeal carcinoma cells, brain tumor cells, colon cancer cells, and leukemic cells. The protein transfection efficiency was assessed by flow cytometry or confocal microscope.

breast cancer cells = system: breast cancer cells
Experimental: as §1

[1] = system: lung adenocarcinoma cells
Experimental: as §1

cervical cancer cells = system: cervical cancer cells
Experimental: as §1

pancreatic cancer cells = system: pancreatic cancer cells
Experimental: as §1

[2] = system: hepatocellular carcinoma cells
Experimental: as §1

## rhSTIP1: v5-tagged recombinant human STIP1 protein (BiP-STIP1-V5-His), 62.6 kDa
Endometrial cancer cells
  transfection efficiency of rhSTIP1 using HEPES buffer: ~97%
Breast cancer cells
  transfection efficiency of rhSTIP1 using HEPES buffer: about 98.8%
[1]
  transfection efficiency of rhSTIP1 using HEPES buffer: ~99.5%
Cervical cancer cells
  transfection efficiency of rhSTIP1 using HEPES buffer: about 98.8%
Pancreatic cancer cells
  transfection efficiency of rhSTIP1 using HEPES buffer: ~99.9%
[2]
  transfection efficiency of rhSTIP1 using HEPES buffer: ~96.6%
